Measurements published in US20130287688A1, “NOVEL COMPOSITIONS AND USES OF ANTI-HYPERTENSION AGENTS FOR CANCER THERAPY” (XTUIT PHARMACEUTICALS, INC., priority 2010, published 2013).

Assays:
E0771 tumors = test: Mathematical analysis of perfused vessel network (multiphoton microscopy); type: in vivo, mice
HSTS26T tumors [1] = test: Virus treatment and tumor growth delay; type: in vivo, SCID mice
Protocol: (§1) Each arm (control and treated) was subsequently divided into HSV treated and non-HSV treated groups. Tumors that had reached 60 mm^3 after two weeks were selected for i.t. HSV injections. Tumors were treated with 10 μl i.t. injections of either PBS or 2.5×10^5 transducing units (t.u.) of oncolytic HSV MGH2 (gift from E. Antonio Chiocca, Ohio State University, Columbus, Ohio). Two i.t. injections of oncolytic HSV separated by 24 hrs were administered. The injections were done with a Harvard Apparatus Standard Pump 22 infusion/withdraw syringe pump system (Holliston, Mass.) at a flow rate of 4 μl/min. Tumors were measured every 2 to 3 days. Tumor volume was estimated as: V=AB^2/2, where V is the tumor volume; A and B are the maximum and minimum diameters of the tumor as measured with calipers.

Mu89 tumors = test: Virus treatment and tumor growth delay; type: in vivo, SCID mice
Protocol: as §1

HSTS26T tumors [2] = test: IgG diffusion by fluorescence recovery after photobleaching (FRAP); type: in vivo, SCID mice
Protocol: FIG. 9 is a bar graph showing the changes in diffusion coefficient in HSTS26T tumors after losartan treatment. The diffusion coefficient of IgG was measured in HSTS26T tumors implanted in the dorsal window chamber of SCID mice. Treated animals received (40 mg/kg/day) losartan by i.p. injection while control animals received saline.
Based on the previous studies on the tumor interstitial matrix (Pluen A, et al. (2001) Proc Natl Acad Sci USA 98:4628-4633 and Brown E, et al. (2003) Nat Med 9:796-800), the inventors then sought to determine if a decrease in collagen content by Losartan can improve the intratumoral distribution of nanoparticles. The inventors therefore measured the intratumoral distribution of fluorescent polystyrene nanoparticles (100 nm diameter) in three different tumor types—HSTS26T, Mu89, and L3.6 pl—after an i.t. or i.v. injection. […] The inventors also determined the effects of losartan on the intratumoral distribution of oncolytic HSV.
Mice with HSTS26T tumors implanted in a dorsal skin fold chamber were treated with i.p. injections of losartan (40 mg/kg/day) for 1 week. Fluorescence recovery after photobleaching (FRAP) measurements were done with a custom built multiphoton microscope based on a previously described protocol (Chauhan V P, et al. (2009) Biophys J 97:330-336). […] Matrix pore sizes were calculated using the SFA-FRAP data, using the equation […]

[3] = test system: L3.6 pl orthotopic pancreatic tumors; test: Distribution and penetration of intravenously injected 100 nm nanoparticles; type: in vivo, mice; conditions: i.v. injected 100 nm nanoparticles
Protocol: The inventors then assessed the effect of losartan on blood vessel perfusion and the intratumoral distribution of i.v. injected nanoparticles in mice with orthotopic pancreatic tumors (L3.6 pl).
A total volume of 10 μl at a concentration of 3.6×10^13 nanoparticles/ml was injected via the tail vein. Twenty-four hrs later 50 μl of FITC-lectin was injected to identify functional vessels. Five min after the lectin-injection tumors were resected, fixed in paraformaldehyde and embedded in OCT. Tumors were then sectioned before confocal imaging and analysis. The extent of nanosphere distribution was determined by measuring the fraction of pixels brighter than the background signal. Nanosphere penetration was determined by drawing contours around perfused vessels and recording the fraction of pixels positive for nanospheres in each contour. Contours extended out to 30 μm for each perfused vessel. Using a previously described algorithm (Tong R T, et al. (2004) Cancer Res 64:3731-3736), the inventors fit the plot of nanosphere fraction and distance away from the vessel to an exponential and obtained a relative penetration depth of nanospheres from each vessel.

[4] = losartan two weeks before i.t. injection of HSV

## CCCCc1nc(Cl)c(CO)n1Cc1ccc(-c2ccccc2-c2nn[nH]n2)cc1 [losartan]
E0771 tumors; from a typical 1.89 in tumors toward 2.0 of normal capillary beds
  fractal dimension of vessel network: increases
E0771 tumors; pre- and post-treatment (days 2-5)
  maximum distance drugs and oxygen must travel to reach tumor cells: decreases
HSTS26T tumors [1]; losartan alone
  tumor growth rate: did not affect
HSTS26T tumors [1]; losartan and HSV
  mice whose tumor volume remained stable for up to 9 weeks: 50%
HSTS26T tumors [1]; [4]
  tumor growth: significantly delayed the growth
Mu89 tumors; losartan alone
  tumor growth rate: did not affect
Mu89 tumors; losartan and HSV, 4 weeks after the virus injection, all tumors
  tumor size relative to the starting treatment size: 3 fold
Mu89 tumors; [4]
  tumor growth: significantly delayed the growth
HSTS26T tumors [2]; 40 mg/kg/day i.p., multiphoton FRAP
  diffusion coefficient of IgG: significant increase
HSTS26T tumors [2]; calculated from IgG diffusion data, control 9.91±0.43 nm
  mean interstitial matrix pore radius: 11.78±0.41 nm
[3]
  nanoparticle content in tumors vs control: two-fold increase
